What was measured:
[1] = test system: U251; test: NCI60 antitumor screening; format: cell-based, human; conditions: for inhibition at 10 µM: Homo sapiens, U-251, 10 μM single dose, U251 (CNS cancer), read-out: growth inhibition percent (GI%)
[2] = test system: 786–0; test: NCI60 antitumor screening; format: cell-based, human; conditions: for inhibition at 10 µM: Homo sapiens, 10 μM single dose, 786–0 (renal cancer), read-out: growth inhibition percent (GI%); for GI%: 10 μM one-dose
[3] = test system: HCT-116; test: NCI60 antitumor screening; format: cell-based, human; conditions: for inhibition at 10 µM: Homo sapiens, 10 μM single dose, HCT-116 (colon cancer), read-out: growth inhibition percent (GI%)
[4] = test system: OVCAR-4; test: NCI60 antitumor screening; format: cell-based, human; conditions: for inhibition at 10 µM: Homo sapiens, 10 μM single dose, OVCAR-4 (ovarian cancer), read-out: growth inhibition percent (GI%); for GI%: 10 μM one-dose
[5] = test system: BT-549; test: NCI60 antitumor screening; format: cell-based, human; conditions: for inhibition at 10 µM: Homo sapiens, 10 μM single dose, BT-549 (breast cancer), read-out: growth inhibition percent (GI%)
[6] = test system: K-562; test: NCI60 antitumor screening; format: cell-based, human; conditions: for inhibition at 10 µM: Homo sapiens, 10 μM single dose, (leukaemia), read-out: growth inhibition percent (GI%); for GI%: 10 μM one-dose
[7] = test system: A498; test: NCI60 antitumor screening; format: cell-based, human; conditions: for inhibition at 10 µM: Homo sapiens, 10 μM single dose, A498 (renal cancer), read-out: growth inhibition percent (GI%)
[8] = test system: MDA-MB-468; test: NCI60 antitumor screening; format: cell-based, human; conditions: for inhibition at 10 µM: Homo sapiens, 10 μM single dose, MDA-MB-468 (breast cancer), read-out: growth inhibition percent (GI%)
[9] = test system: NCI/ADR-RES; test: NCI60 antitumor screening; format: cell-based, human; conditions: for inhibition at 10 µM: Homo sapiens, 10 μM single dose, NCI/ADR-RES (ovarian cancer), read-out: growth inhibition percent (GI%)
[10] = test system: MOLT-4; test: NCI60 antitumor screening; format: cell-based, human; conditions: for inhibition at 10 µM: Homo sapiens, 10 μM single dose, MOLT-4 (leukaemia), read-out: growth inhibition percent (GI%)
[11] = test system: PC-3; test: NCI60 antitumor screening; format: cell-based, human; conditions: for inhibition at 10 µM: Homo sapiens, 10 μM single dose, PC-3 (prostate cancer), read-out: growth inhibition percent (GI%)
[12] = test system: OVCAR-3; test: NCI60 antitumor screening; format: cell-based, human; conditions: for inhibition at 10 µM: Homo sapiens, 10 μM single dose, OVCAR-3 (ovarian cancer), read-out: growth inhibition percent (GI%)
[13] = test system: A549/ATCC; test: NCI60 antitumor screening; format: cell-based, human; conditions: for inhibition at 10 µM: Homo sapiens, 10 μM single dose, A549/ATCC (non-small cell lung cancer), read-out: growth inhibition percent (GI%)
[14] = test system: SF-295; test: NCI60 antitumor screening; format: cell-based, human; conditions: for inhibition at 10 µM: Homo sapiens, 10 μM single dose, SF-295 (CNS cancer), read-out: growth inhibition percent (GI%)
[15] = test system: M14; test: NCI60 antitumor screening; format: cell-based, human; conditions: for inhibition at 10 µM: Homo sapiens, 10 μM single dose, M14 (melanoma), read-out: growth inhibition percent (GI%)
[16] = test system: LOX IMVI; test: NCI60 antitumor screening; format: cell-based, human; conditions: for inhibition at 10 µM: Homo sapiens, 10 μM single dose, LOX IMVI (melanoma), read-out: growth inhibition percent (GI%)
[17] = test system: SF-539; test: NCI60 antitumor screening; format: cell-based, human; conditions: for inhibition at 10 µM: Homo sapiens, 10 μM single dose, SF-539 (CNS cancer), read-out: growth inhibition percent (GI%); for GI%: 10 μM one-dose
[18] = test system: MDA-MB-435; test: NCI60 antitumor screening; format: cell-based, human; conditions: for inhibition at 10 µM: Homo sapiens, 10 μM single dose, MDA-MB-435 (melanoma), read-out: growth inhibition percent (GI%)
[19] = test system: HT29; test: NCI60 antitumor screening; format: cell-based, human; conditions: for inhibition at 10 µM: Homo sapiens, HT-29, 10 μM single dose, HT29 (colon cancer), read-out: growth inhibition percent (GI%)
[20] = test system: SK-MEL-5; test: NCI60 antitumor screening; format: cell-based, human; conditions: for inhibition at 10 µM: Homo sapiens, 10 μM single dose, SK-MEL-5 (melanoma), read-out: growth inhibition percent (GI%)
[21] = test system: SK-MEL-28; test: NCI60 antitumor screening; format: cell-based, human; conditions: for inhibition at 10 µM: Homo sapiens, 10 μM single dose, SK-MEL-28 (melanoma), read-out: growth inhibition percent (GI%)
[22] = test system: CCRF-CEM; test: NCI60 antitumor screening; format: cell-based, human; conditions: for inhibition at 10 µM: Homo sapiens, 10 μM single dose, CCRF-CEM (leukaemia), read-out: growth inhibition percent (GI%)
[23] = test system: NCI-H460; test: NCI60 antitumor screening; format: cell-based, human; conditions: for inhibition at 10 µM: Homo sapiens, 10 μM single dose, NCI-H460 (non-small cell lung cancer), read-out: growth inhibition percent (GI%)
[24] = test system: HL-60(TB); test: NCI60 antitumor screening; format: cell-based, human; conditions: for inhibition at 10 µM: Homo sapiens, 10 μM single dose, HL-60(TB) (leukaemia), read-out: growth inhibition percent (GI%)
[25] = test system: SF-268; test: NCI60 antitumor screening; format: cell-based, human; conditions: for inhibition at 10 µM: Homo sapiens, 10 μM single dose, SF-268 (CNS cancer), read-out: growth inhibition percent (GI%)
[26] = test system: SR; test: NCI60 antitumor screening; format: cell-based, human; conditions: for inhibition at 10 µM: Homo sapiens, 10 μM single dose, SR (leukaemia), read-out: growth inhibition percent (GI%); for GI%: 10 μM one-dose, Table 1
[27] = test system: MDA-MB-231/ATCC; test: NCI60 antitumor screening; format: cell-based, human; conditions: for inhibition at 10 µM: Homo sapiens, 10 μM single dose, MDA-MB-231/ATCC (breast cancer), read-out: growth inhibition percent (GI%)

Cc1ccc(CSc2nc(-c3ccc(F)cc3)c(C#N)c(N3CCN(c4ccccc4)CC3)n2)cc1 [4p, 4-(4-Fluorophenyl)-2-((4-methylbenzyl)thio)-6-(4-phenylpiperazin-1-yl) pyrimidine-5-carbonitrile]
inhibition at 10 µM [1]: < 10%
inhibition at 10 µM [2]: < 10%
inhibition at 10 µM [3]: 15.1%
inhibition at 10 µM [4]: 10.6%
inhibition at 10 µM [5]: < 10%
inhibition at 10 µM [6]: 18%
inhibition at 10 µM [7]: < 10%
inhibition at 10 µM [8]: 13.6%
melting point: 145 to 147 °C
inhibition at 10 µM [9]: < 10%
inhibition at 10 µM [10]: < 10%
inhibition at 10 µM [11]: 25.1%
inhibition at 10 µM [12]: < 10%
inhibition at 10 µM [13]: 11.6%
inhibition at 10 µM [14]: < 10%
inhibition at 10 µM [15]: 11%
inhibition at 10 µM [16]: < 10%
inhibition at 10 µM [17]: < 10%
inhibition at 10 µM [18]: 10.3%
inhibition at 10 µM [19]: < 10%
inhibition at 10 µM [20]: 13.7%
inhibition at 10 µM [21]: < 10%
inhibition at 10 µM [22]: < 10%
inhibition at 10 µM [23]: < 10%
inhibition at 10 µM [24]: < 10%
inhibition at 10 µM [25]: 15.3%

Cc1ccc(CSc2nc(-c3ccc(F)cc3)c(C#N)c(N3CCNCC3)n2)cc1 [4h, 4-(4-Fluorophenyl)-2-((4-methylbenzyl)thio)-6-(piperazin-1-yl)pyrimidine-5-carbonitrile]
inhibition at 10 µM [1]: < 10%
inhibition at 10 µM [2]: < 10%
inhibition at 10 µM [3]: < 10%
inhibition at 10 µM [4]: < 10%
inhibition at 10 µM [5]: < 10%
inhibition at 10 µM [6]: < 10%
inhibition at 10 µM [7]: < 10%
inhibition at 10 µM [8]: < 10%
inhibition at 10 µM [9]: < 10%
inhibition at 10 µM [10]: < 10%
inhibition at 10 µM [26]: < 10%
inhibition at 10 µM [27]: < 10%
inhibition at 10 µM [11]: < 10%
inhibition at 10 µM [12]: < 10%
inhibition at 10 µM [13]: < 10%
inhibition at 10 µM [14]: < 10%
inhibition at 10 µM [15]: < 10%
inhibition at 10 µM [16]: < 10%
inhibition at 10 µM [17]: < 10%
inhibition at 10 µM [18]: < 10%
inhibition at 10 µM [19]: < 10%
inhibition at 10 µM [20]: < 10%
inhibition at 10 µM [21]: < 10%
inhibition at 10 µM [22]: < 10%
inhibition at 10 µM [23]: < 10%
inhibition at 10 µM [24]: < 10%
inhibition at 10 µM [25]: < 10%

CN1CCN(c2nc(SCc3ccccc3)nc(-c3ccc(F)cc3)c2C#N)CC1 [4i, 2-(Benzylthio)-4-(4-fluorophenyl)-6-(4-methylpiperazin-1-yl) pyrimidine-5-carbonitrile]
inhibition at 10 µM [1]: < 10%
GI% ([2]; Table 1): — (GI value > 70%)
inhibition at 10 µM [2]: 29.3%
inhibition at 10 µM [3]: 45.8%
GI% ([4]; Table 1): — (GI value > 70%)
inhibition at 10 µM [4]: 22.5%
inhibition at 10 µM [5]: < 10%
GI% ([6]; Table 1): 73.15%
inhibition at 10 µM [6]: 73.2%
inhibition at 10 µM [7]: 12.5%
inhibition at 10 µM [8]: 29.2%
inhibition at 10 µM [9]: < 10%
inhibition at 10 µM [10]: 49.8%
GI% [26]: 70.98%
inhibition at 10 µM [26]: 71%
inhibition at 10 µM [27]: 15.9%
inhibition at 10 µM [11]: 31.9%
inhibition at 10 µM [12]: 14.4%
inhibition at 10 µM [13]: 38.3%
inhibition at 10 µM [14]: 12.3%
inhibition at 10 µM [15]: 18.1%
inhibition at 10 µM [16]: 25.4%
GI% ([17]; Table 1): — (GI value > 70%)
inhibition at 10 µM [17]: 14.4%
inhibition at 10 µM [18]: 12.8%
inhibition at 10 µM [19]: 67%
inhibition at 10 µM [20]: 33.6%
inhibition at 10 µM [21]: < 10%
inhibition at 10 µM [22]: 37.9%
inhibition at 10 µM [23]: 35.1%
inhibition at 10 µM [24]: 36.5%
inhibition at 10 µM [25]: 26.8%

Cc1ccc(CSc2nc(-c3ccc(F)cc3)c(C#N)c(N3CCOCC3)n2)cc1 [4d, 4-(4-Fluorophenyl)-2-((4-methylbenzyl)thio)-6-morpholinopyrimidine-5-carbonitrile]
GI% ([1]; 10 μM one-dose): 13.13%
GI% [2]: 55.92%
GI% ([2]; Table 1): — (GI value > 70%)
GI% ([3]; 10 μM one-dose): 19.81%
GI% [4]: 20.15%
GI% ([4]; Table 1): — (GI value > 70%)
GI% ([5]; 10 μM one-dose): 11.94%
GI% [6]: 10.67%
GI% ([6]; Table 1): — (GI value > 70%)
GI% ([7]; 10 μM one-dose): — (GI% < 10)
GI% ([8]; 10 μM one-dose): — (GI% < 10)
GI% ([9]; 10 μM one-dose): — (GI% < 10)
GI% ([10]; 10 μM one-dose): — (GI% < 10)
GI% [26]: — (GI value > 70%)
GI% ([27]; 10 μM one-dose): 31.92%
GI% ([11]; 10 μM one-dose): — (GI% < 10)
GI% ([12]; 10 μM one-dose): — (GI% < 10)
GI% ([13]; 10 μM one-dose): 24.90%
GI% ([14]; 10 μM one-dose): 32.25%
GI% ([15]; 10 μM one-dose): — (GI% < 10)
GI% ([16]; 10 μM one-dose): 11.10%
GI% [17]: 32.27%
GI% ([17]; Table 1): — (GI value > 70%)
GI% ([18]; 10 μM one-dose): — (GI% < 10)
GI% ([19]; 10 μM one-dose): — (GI% < 10)
GI% ([20]; 10 μM one-dose): 10.99%
GI% ([21]; 10 μM one-dose): — (GI% < 10)
GI% ([22]; 10 μM one-dose): — (GI% < 10)
GI% ([23]; 10 μM one-dose): — (GI% < 10)
GI% ([24]; 10 μM one-dose): — (GI% < 10)
GI% ([25]; 10 μM one-dose): 22.32%
